In publication PMC5650142, “GPR40 partial agonists and AgoPAMs: Differentiating effects on glucose and hormonal secretions in the rodent” (PLoS ONE, 2017):
Values joined by “and” are separate entries in the source; they are usually repeats but may differ in a detail not shown here. Identical values can stand only once.

How the values were obtained:
[1] = system: wild type and GPR40-/- mice; assay: Mouse incretin measurements (plasma glucagon, wild type and GPR40-/- mice); type: in vivo; conditions: for Plasma Glucagon: @ 30, individual animals (Fig 6A)
Experimental: Wild type and GPR40-/- mice were weighed the day prior to dosing. Food was removed from mice at lights on. 2 hours later mice were dosed via oral gavage (PO) at a volume of 10 ml/kg with vehicle (0.5% methylcellulose), AP1 at 30 mg/kg, or AP3 at 30 mg/kg. At 60 minutes post dose, mice were euthanized via CO2 asphyxiation. Blood was collected via cardiac puncture.
(§1) Blood for insulin, glucagon, GLP-1, GIP, and PYY measurements was collected into K2EDTA Microtainer tubes (BD, Franklin Lakes, NJ) pre-treated with DPP4 inhibitor (Millipore, Billerica, MA) and cOmplete™ Protease Inhibitor Cocktail Tablets (Roche Diagnostics, Indianapolis, IN). Tubes were centrifuged for 10 minutes at 5000 RPM, and plasma was aliquotted for analysis. Plasma insulin levels were measured via EIA (Mesoscale Discovery ELISA Kit, Gaithersburg MD). Rat plasma total GLP-1 was measured using Total GLP-1 (ver.2) Assay Kit (Cat#: K150JVC). The measurement of active GLP-1 was carried out in a similar manner as that described for total GLP-1 assay with the exception that MSD Active GLP-1 (ver. 2) assay kit (Cat# K150JWC) was used. Rat plasma glucagon was measured using an in-house glucagon assay developed as a MSD format sandwich immunoassay (Merck & Co., Inc., MRL, Kenilworth, NJ USA). The antibody specificity was cross validated via mass- spec using procedures described in Lee et al. Briefly, MSD Streptavidin Gold plates were coated with 2 μg/ml biotin mouse monoclonal antibody generated to glucagon. Test samples were added to the plates and a separate Sulfo- tagged monoclonal antibody was used to detect the captured glucagon protein (2 μg/ml). The ELISA was carried out in the standard reagents in the MSD format. The plate was read on the SECTOR Imager 6000 Reader. Metabolic hormones GIP (Gastric Inhibitory Polypeptide) and PYY (Peptide YY) were measured in rat plasma using the Rat Metabolic Magnetic Bead Panel (EMD Millipore, Billerica, MA). The assay was performed according to manufacturer protocol.

[2] = system: wild type C57BL/6 and GLP-1R-/- mice; assay: Mouse glucose tolerance test (IPGTT, wild type and GLP-1R-/- mice); type: in vivo; design: Plasma Insulin Net AUC: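 insulin AUC integrated from 0 to 60 min after dextrose challenge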; Blood Glucose Net AUC: unit not given here; conditions: for Blood Glucose / Plasma Insulin: 10 mpk, 10 mg/kg; for Blood Glucose Net AUC / Plasma Insulin Net AUC: @ 10, individual animals
Experimental: Wild type C57BL/6 mice and GLP-1R^-/- mice were fed a high fat diet (D12492i, Research Diets) for 6 weeks prior to GTT. On the day of study, mice were fasted at 1 h post lights on, and body weights were measured. […] Mice were then dosed PO at a volume of 10 ml/kg with vehicle (0.5% methylcellulose), MK-2305 (a GPR40 partial agonist described in Hauge et al) at 10 mg/kg, or AP1 at 30 mg/kg. Dosages of MK-2305 and AP1 were administered at maximal efficacious doses as determined by acute dose titrations with efficacy determined via reduction in glucose during an IPGTT (data not shown). […] Blood glucose was measured again (time = 0) just prior to an intraperitoneal (IP) dextrose challenge of 1 g/kg at 10 ml/kg dose volume (Dextrose, Hospira Inc., Lake Forrest IL). A subset of vehicle treated mice was injected with 0.9% NaCl saline to serve as negative control. Blood glucose was then measured at 10, 20, 40, 60, and 120 min after challenge. To capture insulin secretion during the IPGTT, blood via tail vein was collected at t = - 60, 0, 10, 20, 40, 60 min post challenge.
Net AUC was calculated by subtracting the average AUC of the saline group from each groups’ total AUC.
as §1

[3] = GLP-1R-/- and wild type mice, MK-2305 10 mg/kg, AP1 30 mg/kg PO
[4] = KO mice, Time 0, individual animals
[5] = KO mice, Time 10, individual animals
[6] = KO mice, Time 20, individual animals
[7] = KO mice, Time 40, individual animals
[8] = KO mice, Time 60, individual animals
[9] = KO mice, Time -60, individual animals
[10] = WT mice, Time 0, individual animals
[11] = WT mice, Time 10, individual animals
[12] = WT mice, Time 20, individual animals
[13] = WT mice, Time 60, individual animals
[14] = WT mice, Time -60, individual animals

C[C@H](C(=O)O)[C@H](c1ccc2c(c1)O[C@H](C1CN(Cc3cc(C(F)(F)F)ccc3C(F)(F)F)C1)CC2)C1CC1 [AP3]
Plasma Glucagon ([1]; KO mice): 20.25 pg/mL and 37.44 pg/mL and 95.8 pg/mL and 40.58 pg/mL and 53.81 pg/mL and 63.13 pg/mL and 24.92 pg/mL
circulating glucagon ([1]; WT mice, 30 mg/kg PO, 1h post dose): increase
Plasma Glucagon ([1]; WT mice): 137.56 pg/mL and 161.08 pg/mL and 195.45 pg/mL and 174.67 pg/mL and 101.1 pg/mL and 67.12 pg/mL and 161.82 pg/mL

O=C1NC(=O)C(C2CCOc3cc(Oc4ccc(C(F)(F)F)cc4Cl)ccc32)S1 (stereo not drawn) [MK-2305, reference compound]
blood glucose excursion during IPGTT [2, 3]: reduced
insulin following dextrose challenge (IPGTT) [2, 3]: no effect
Blood Glucose [2, 4]: 151 mg/dL and 150 mg/dL and 186 mg/dL and 194 mg/dL and 152 mg/dL and 171 mg/dL and 161 mg/dL
Plasma Insulin [2, 4]: 0.848 ng/mL and 0.42 ng/mL and 0.528 ng/mL and 1.053 ng/mL and 0.383 ng/mL and 0.356 ng/mL and 0.379 ng/mL
Blood Glucose [2, 5]: 359 mg/dL and 371 mg/dL and 443 mg/dL and 389 mg/dL and 416 mg/dL and 530 mg/dL
Plasma Insulin [2, 5]: 1.175 ng/mL and 0.368 ng/mL and 0.464 ng/mL and 0.199 ng/mL and 0.51 ng/mL and 0.24 ng/mL and 0.661 ng/mL
Blood Glucose [2, 6]: 361 mg/dL and 257 mg/dL and 455 mg/dL and 411 mg/dL and 438 mg/dL and 432 mg/dL and 566 mg/dL
Plasma Insulin [2, 6]: 1.151 ng/mL and 0.543 ng/mL and 0.441 ng/mL and 1.015 ng/mL and 0.58 ng/mL and 0.405 ng/mL and 0.254 ng/mL
Blood Glucose [2, 7]: 332 mg/dL and 292 mg/dL and 386 mg/dL
Plasma Insulin [2, 7]: 0.591 ng/mL and 0.442 ng/mL and 0.194 ng/mL and 0.983 ng/mL and 0.199 ng/mL and 0.278 ng/mL and 0.213 ng/mL
Blood Glucose [2, 8]: 346 mg/dL and 269 mg/dL and 435 mg/dL and 335 mg/dL and 332 mg/dL and 352 mg/dL and 512 mg/dL
Plasma Insulin [2, 8]: 0.58 ng/mL and 0.57 ng/mL and 0.264 ng/mL and 0.784 ng/mL and 0.335 ng/mL and 0.275 ng/mL and 0.261 ng/mL
Blood Glucose ([2]; KO mice, Time 120, individual animals): 303 mg/dL and 186 mg/dL and 397 mg/dL and 270 mg/dL and 224 mg/dL and 260 mg/dL and 402 mg/dL
Blood Glucose [2, 9]: 180 mg/dL and 203 mg/dL and 200 mg/dL and 205 mg/dL and 188 mg/dL and 236 mg/dL and 197 mg/dL
Plasma Insulin [2, 9]: 0.786 ng/mL and 0.573 ng/mL and 0.295 ng/mL and 0.819 ng/mL and 0.47 ng/mL and 0.336 ng/mL and 0.379 ng/mL
Blood Glucose ([2]; KO mice, Time -90, individual animals): 165 mg/dL and 181 mg/dL and 160 mg/dL and 198 mg/dL and 154 mg/dL and 193 mg/dL and 185 mg/dL
Blood Glucose Net AUC ([2]; KO mice): 26136 and 8611 and -3694 and 17776 and 10566 and 8161 and 9656
Plasma Insulin Net AUC ([2]; KO mice): -6.842 and 24.846 and 2.455 and -5.609 and 23.949 and -2.988 and -7.445
Blood Glucose [2, 10]: 173 mg/dl and 130 mg/dl (2×) and 172 mg/dl and 136 mg/dl and 151 mg/dl and 154 mg/dl
Plasma Insulin [2, 10]: 2.909 ng/mL and 1.344 ng/mL and 1.761 ng/mL and 0.655 ng/mL and 1.362 ng/mL and 1.244 ng/mL and 1.598 ng/mL
Blood Glucose [2, 11]: 300 mg/dL and 375 mg/dL and 416 mg/dL and 324 mg/dL and 318 mg/dL and 369 mg/dL and 438 mg/dL
Plasma Insulin [2, 11]: 1.538 ng/mL and 1.501 ng/mL and 2.253 ng/mL and 0.689 ng/mL and 0.787 ng/mL and 2.31 ng/mL and 1.19 ng/mL
Blood Glucose [2, 12]: 341 mg/dL and 386 mg/dL and 396 mg/dL and 278 mg/dL and 357 mg/dL and 365 mg/dL and 487 mg/dL
Plasma Insulin [2, 12]: 3.87 ng/mL and 1.373 ng/mL and 1.842 ng/mL and 0.672 ng/mL and 0.733 ng/mL and 1.031 ng/mL and 1.681 ng/mL
Plasma Insulin ([2]; WT mice, Time 40, individual animals): 3.585 ng/mL and 1.27 ng/mL and 1.204 ng/mL and 0.278 ng/mL and 1.824 ng/mL and 0.546 ng/mL and 1.72 ng/mL
Blood Glucose [2, 13]: 285 mg/dL and 328 mg/dL and 270 mg/dL and 195 mg/dL and 296 mg/dL and 260 mg/dL and 442 mg/dL
Plasma Insulin [2, 13]: 2.679 ng/mL and 1.626 ng/mL and 1.133 ng/mL and 0.252 ng/mL and 0.763 ng/mL and 0.592 ng/mL and 1.175 ng/mL
Blood Glucose ([2]; WT mice, Time 120, individual animals): 328 mg/dL and 300 mg/dL and 191 mg/dL and 160 mg/dL and 218 mg/dL and 205 mg/dL and 311 mg/dL
Blood Glucose [2, 14]: 177 mg/dl (2×) and 182 mg/dl and 162 mg/dl (2×) and 153 mg/dl and 176 mg/dl
Plasma Insulin [2, 14]: 2.201 ng/mL and 1.482 ng/mL and 1.004 ng/mL and 0.467 ng/mL and 0.749 ng/mL and 1.475 ng/mL and 2.049 ng/mL
Blood Glucose ([2]; WT mice, Time -90, individual animals): 182 mg/dL and 151 mg/dL and 166 mg/dL and 146 mg/dL and 175 mg/dL and 155 mg/dL and 164 mg/dL
Blood Glucose Net AUC ([2]; WT mice): 22732 and 10047 and 12357 and 7637 and -1383 and 8197 and 6232
Plasma Insulin Net AUC ([2]; WT mice): 17.355 and 112.532 and 10.066 and 20.452 and -45.584 and -4.157 and -12.281
